Data published in PMC10044120, “Potent and selective covalent inhibition of the papain-like protease from SARS-CoV-2” (Nature Communications, 2023).
pEC50, pIC50: −log10 of the molar value. Several values for one entry are separate records, joined by “and”; a condition that tells them apart may be missing. Equal values may be shown once. Read-outs that look alike come from different tables or passages of the source.

Columns and labels:
[1] = target: SARS-CoV-2 PLpro (Severe acute respiratory syndrome coronavirus 2, UniProt P0DTD1); test: biochemical; settings: PLpro 50 nM, Ub-rhodamine110
[2] = target: T1, USP7 (Homo sapiens, UniProt Q93009); test: biochemical; settings: USP7 5 nM, Ub-CHOP2
T1 construct: purchased LifeSensors, Inc. (Malvern, PA)
T1 sequence (Q93009 whole entry): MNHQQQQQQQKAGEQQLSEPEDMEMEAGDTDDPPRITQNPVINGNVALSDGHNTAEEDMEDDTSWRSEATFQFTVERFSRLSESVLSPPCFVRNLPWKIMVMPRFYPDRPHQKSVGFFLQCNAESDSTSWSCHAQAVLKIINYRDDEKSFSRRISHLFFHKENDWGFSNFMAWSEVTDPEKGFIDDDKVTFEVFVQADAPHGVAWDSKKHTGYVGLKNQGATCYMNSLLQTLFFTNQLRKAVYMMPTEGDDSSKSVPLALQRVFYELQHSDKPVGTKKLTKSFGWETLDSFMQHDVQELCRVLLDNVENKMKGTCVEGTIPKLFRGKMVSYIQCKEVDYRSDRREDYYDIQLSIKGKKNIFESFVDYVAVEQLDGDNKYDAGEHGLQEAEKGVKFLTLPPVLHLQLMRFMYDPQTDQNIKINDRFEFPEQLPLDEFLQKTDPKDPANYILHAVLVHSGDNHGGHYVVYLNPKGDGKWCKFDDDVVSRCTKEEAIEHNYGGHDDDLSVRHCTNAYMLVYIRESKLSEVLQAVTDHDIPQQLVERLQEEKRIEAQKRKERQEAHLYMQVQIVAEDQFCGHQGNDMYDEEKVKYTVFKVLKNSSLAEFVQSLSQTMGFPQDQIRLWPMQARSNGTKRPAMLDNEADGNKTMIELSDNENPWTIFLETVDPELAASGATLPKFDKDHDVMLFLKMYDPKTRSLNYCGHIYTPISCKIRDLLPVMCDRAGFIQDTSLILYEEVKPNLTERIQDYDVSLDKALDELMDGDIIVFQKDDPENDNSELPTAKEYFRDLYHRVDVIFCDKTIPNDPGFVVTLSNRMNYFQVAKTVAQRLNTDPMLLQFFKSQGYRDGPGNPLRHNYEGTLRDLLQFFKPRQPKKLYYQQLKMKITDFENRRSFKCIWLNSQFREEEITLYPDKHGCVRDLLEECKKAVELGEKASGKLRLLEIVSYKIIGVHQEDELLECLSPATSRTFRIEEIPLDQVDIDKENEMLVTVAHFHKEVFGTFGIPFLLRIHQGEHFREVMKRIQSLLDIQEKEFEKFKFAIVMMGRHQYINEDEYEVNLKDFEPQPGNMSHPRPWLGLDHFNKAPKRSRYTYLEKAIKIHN

[3] = target: T2, USP30 (Homo sapiens, UniProt Q70CQ3); test: biochemical; settings: USP30 10 nM, Ub-rhodamine110
T2 construct: purchased LifeSensors, Inc. (Malvern, PA)
T2 sequence (Q70CQ3 whole entry): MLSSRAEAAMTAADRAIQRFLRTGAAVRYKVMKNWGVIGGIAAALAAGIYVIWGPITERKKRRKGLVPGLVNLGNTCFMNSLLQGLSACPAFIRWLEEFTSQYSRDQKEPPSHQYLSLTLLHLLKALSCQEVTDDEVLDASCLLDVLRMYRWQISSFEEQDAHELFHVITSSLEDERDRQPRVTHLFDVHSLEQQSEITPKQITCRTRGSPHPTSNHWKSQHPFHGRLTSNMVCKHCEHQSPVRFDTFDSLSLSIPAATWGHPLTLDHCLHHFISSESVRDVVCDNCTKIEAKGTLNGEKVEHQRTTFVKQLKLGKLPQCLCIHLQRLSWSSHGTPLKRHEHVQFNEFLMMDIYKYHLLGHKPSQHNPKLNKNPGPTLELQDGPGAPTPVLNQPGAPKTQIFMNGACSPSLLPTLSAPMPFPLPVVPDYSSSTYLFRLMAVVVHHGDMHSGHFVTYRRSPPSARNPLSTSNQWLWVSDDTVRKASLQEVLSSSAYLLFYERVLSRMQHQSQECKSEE

[4] = target: T3, USP8 (Homo sapiens, UniProt P40818); test: biochemical; settings: USP8 10 nM, Ub-rhodamine110
T3 construct: USP2c, USP4, USP7, USP8c, USP15, USP30WT, and UCH-L1; purchased LifeSensors, Inc. (Malvern, PA)
T3 sequence (P40818 777-1109): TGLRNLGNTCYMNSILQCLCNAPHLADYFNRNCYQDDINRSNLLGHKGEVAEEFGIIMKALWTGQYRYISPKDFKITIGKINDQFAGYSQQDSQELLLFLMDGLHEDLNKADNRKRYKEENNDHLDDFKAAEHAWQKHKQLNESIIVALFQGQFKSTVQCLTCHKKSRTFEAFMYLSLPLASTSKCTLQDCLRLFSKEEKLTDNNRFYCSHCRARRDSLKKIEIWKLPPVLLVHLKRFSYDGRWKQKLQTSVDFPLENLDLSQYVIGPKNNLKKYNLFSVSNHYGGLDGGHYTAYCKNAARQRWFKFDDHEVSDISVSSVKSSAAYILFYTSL

[5] = test system: SARS-CoV-2 isolate USA-WA1/2020; test: microbe, parasite or virus in culture; settings: for inhibition at […]: Severe acute respiratory syndrome coronavirus 2, Vero C1008, read-out: cytopathic effect, % cell viability; for inhibition at 2.08 µM: Severe acute respiratory syndrome coronavirus 2, Vero C1008, read-out: cytopathic effect, % cell viability, [inhibitor] 2.08 uM; for inhibition at 16.65 µM: Severe acute respiratory syndrome coronavirus 2, Vero C1008, read-out: cytopathic effect, % cell viability, [inhibitor] 16.65 uM
[6] = test system: SARS-CoV-2 isolate USA-WA1/2020; settings: for inhibition: read-out: cytopathic effect, % cell viability, duplicate wells
[7] = target: T4, USP2 (Homo sapiens, UniProt O75604); test: biochemical; settings: USP2 10 nM, Ub-rhodamine110
T4 construct: USP2c, USP4, USP7, USP8c, USP15, USP30WT, and UCH-L1; purchased LifeSensors, Inc. (Malvern, PA)
T4 sequence (O75604 267-599): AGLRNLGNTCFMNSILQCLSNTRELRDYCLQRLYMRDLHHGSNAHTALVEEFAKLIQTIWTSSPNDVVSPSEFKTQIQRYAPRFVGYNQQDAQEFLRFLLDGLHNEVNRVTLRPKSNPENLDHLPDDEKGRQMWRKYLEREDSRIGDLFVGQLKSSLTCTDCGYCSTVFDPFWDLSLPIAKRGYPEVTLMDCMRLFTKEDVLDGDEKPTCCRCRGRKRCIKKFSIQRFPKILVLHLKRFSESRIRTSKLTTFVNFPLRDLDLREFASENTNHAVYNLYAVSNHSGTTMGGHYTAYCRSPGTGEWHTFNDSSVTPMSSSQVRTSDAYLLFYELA

[8] = target: PLpro (Severe acute respiratory syndrome coronavirus 2, UniProt P0DTD1); test: Intact protein ESI-MS to assess covalent adduct formation; type: binding, SARS-CoV-2; parameters: unit not given here
[9] = target: T5, USP4 (Homo sapiens, UniProt Q13107); test: DUB selectivity assay, USP4 (Ub-rhodamine110); type: biochemical
T5 construct: purchased LifeSensors, Inc. (Malvern, PA)
T5 sequence (Q13107 1-963): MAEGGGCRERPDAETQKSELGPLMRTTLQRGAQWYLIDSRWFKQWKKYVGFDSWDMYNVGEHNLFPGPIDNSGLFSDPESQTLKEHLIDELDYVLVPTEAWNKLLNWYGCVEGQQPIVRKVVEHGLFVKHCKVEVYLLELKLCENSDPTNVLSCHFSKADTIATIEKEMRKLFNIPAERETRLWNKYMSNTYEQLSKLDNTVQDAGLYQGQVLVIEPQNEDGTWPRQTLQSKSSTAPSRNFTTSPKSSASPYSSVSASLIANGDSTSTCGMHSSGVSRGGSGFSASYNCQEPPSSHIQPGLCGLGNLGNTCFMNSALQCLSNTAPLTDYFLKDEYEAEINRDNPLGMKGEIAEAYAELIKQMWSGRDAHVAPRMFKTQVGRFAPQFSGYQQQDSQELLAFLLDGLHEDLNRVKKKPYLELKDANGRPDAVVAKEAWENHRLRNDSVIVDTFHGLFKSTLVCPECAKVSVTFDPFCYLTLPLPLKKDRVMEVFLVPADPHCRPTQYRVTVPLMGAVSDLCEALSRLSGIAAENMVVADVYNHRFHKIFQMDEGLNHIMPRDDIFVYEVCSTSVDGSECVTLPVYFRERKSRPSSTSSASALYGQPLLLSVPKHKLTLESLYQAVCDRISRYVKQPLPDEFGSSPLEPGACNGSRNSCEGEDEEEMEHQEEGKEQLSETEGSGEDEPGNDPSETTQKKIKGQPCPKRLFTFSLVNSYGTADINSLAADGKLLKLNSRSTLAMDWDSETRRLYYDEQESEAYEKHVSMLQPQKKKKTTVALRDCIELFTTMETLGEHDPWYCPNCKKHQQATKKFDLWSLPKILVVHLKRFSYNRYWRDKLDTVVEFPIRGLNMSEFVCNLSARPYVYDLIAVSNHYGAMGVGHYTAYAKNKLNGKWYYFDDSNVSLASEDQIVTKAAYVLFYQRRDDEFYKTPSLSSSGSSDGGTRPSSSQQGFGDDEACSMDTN

[10] = target: T6, USP15 (Homo sapiens, UniProt Q9Y4E8); test: DUB selectivity assay, USP15 (Ub-rhodamine110); type: biochemical
T6 construct: purchased LifeSensors, Inc. (Malvern, PA)
T6 sequence (Q9Y4E8 1-981): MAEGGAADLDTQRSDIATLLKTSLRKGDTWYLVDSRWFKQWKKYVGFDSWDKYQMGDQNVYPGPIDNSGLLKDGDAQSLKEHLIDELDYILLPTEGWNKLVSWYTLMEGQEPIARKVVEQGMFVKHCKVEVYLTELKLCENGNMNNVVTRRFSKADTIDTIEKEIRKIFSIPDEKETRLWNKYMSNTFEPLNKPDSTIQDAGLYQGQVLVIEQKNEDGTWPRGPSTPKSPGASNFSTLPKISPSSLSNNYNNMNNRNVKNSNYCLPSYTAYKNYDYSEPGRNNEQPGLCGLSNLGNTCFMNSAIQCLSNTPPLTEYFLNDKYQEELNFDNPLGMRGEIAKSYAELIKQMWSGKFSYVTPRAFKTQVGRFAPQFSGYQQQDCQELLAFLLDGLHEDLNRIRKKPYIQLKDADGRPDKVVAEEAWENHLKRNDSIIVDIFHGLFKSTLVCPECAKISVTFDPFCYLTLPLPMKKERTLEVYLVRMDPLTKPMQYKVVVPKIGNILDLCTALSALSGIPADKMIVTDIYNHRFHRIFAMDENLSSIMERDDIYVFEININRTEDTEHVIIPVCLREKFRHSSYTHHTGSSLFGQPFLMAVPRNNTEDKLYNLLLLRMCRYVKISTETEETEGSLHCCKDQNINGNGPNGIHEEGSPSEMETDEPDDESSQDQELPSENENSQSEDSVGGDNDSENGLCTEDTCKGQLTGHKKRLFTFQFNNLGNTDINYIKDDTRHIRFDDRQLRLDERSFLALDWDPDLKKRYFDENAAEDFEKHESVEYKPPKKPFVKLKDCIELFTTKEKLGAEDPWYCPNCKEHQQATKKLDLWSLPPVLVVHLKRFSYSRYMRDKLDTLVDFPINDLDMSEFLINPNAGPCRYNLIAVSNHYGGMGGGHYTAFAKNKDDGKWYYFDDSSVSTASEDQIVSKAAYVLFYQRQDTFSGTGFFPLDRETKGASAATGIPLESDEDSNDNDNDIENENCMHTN

[11] = Metabolic stability in mouse liver S9 fraction; settings: CD-1, mouse
[12] = Metabolic stability in rat liver S9 fraction; settings: Sprague-Dawley
[13] = Metabolic stability in mouse liver microsomes; settings: CD-1, mouse

Structure (SMILES)	Hill slope [1]	pIC50 [2]	pIC50 [3]	pIC50 [4]	inhibition at […] [5]	inhibition at 2.08 µM ([5]; duplicate wells) [%]	inhibition at 16.65 µM ([5]; duplicate wells) [%]	inhibition ([6]; [inhibitor] 2.08 uM, 2.08 µM) [%]	inhibition ([6]; [inhibitor] 8.33 uM, 8.33 µM)	inhibition ([6]; [inhibitor] 16.65 uM, 16.65 µM) [%]	pIC50 [7]	Measured adduct mass [8]	half-life [11] [min]	microsomal CLint [11] [µL/min/mg]	half-life [12] [min]	microsomal CLint [12] [µL/min/mg]	half-life [13] [min]	microsomal CLint [13] [µL/min/mg]	other results
COC(=O)/C=C/C(=O)NNC(=O)CCc1ccccc1C(=O)N[C@H](C)c1cccc2ccccc12 [Compound 7, methyl(R,E)-4-(2-(3-(2-((1-(naphthalen-1 yl)ethyl)carbamoyl)phenyl)propanoyl)hydrazineyl)-4-oxobut-2-enoate]	1.06	< 4.52	< 4.52	< 4.52	79.3% and 52.3%	80.5	88.8	65	95.3% and 73.5%	97	< 4.52	474	9	266	31	75.5	13	540	viability at […] ([5]; Severe acute respiratory syndrome coronavirus 2, Vero C1008, read-out: % cell viability, cytopathic effect): 79.3% and 52.3%; viability at 2.08 µM ([5]; Severe acute respiratory syndrome coronavirus 2, Vero C1008, read-out: % cell viability, cytopathic effect, 2.08 uM): 80.5%; viability at 16.65 µM ([5]; Severe acute respiratory syndrome coronavirus 2, Vero C1008, read-out: % cell viability, cytopathic effect, 16.65 uM): 88.8%; % cell viability, cytopathic effect ([6]; 2.08 uM): 64.9953%; % cell viability, cytopathic effect ([6]; 8.33 uM): 95.2833% and 73.4931%; % cell viability, cytopathic effect ([6]; 16.65 uM): 97.0077%; pIC50 [9]: < 4.52; pIC50 [10]: < 4.52
C[C@@H](NC(=O)c1ccccc1CCC(=O)NNC(=O)CCl)c1cccc2ccccc12 [Compound 9, (R)-2-(3-(2-(2-chloroacetyl)hydrazineyl)-3-oxopropyl)-N-(1-(naphthalen-1-yl)ethyl)benzamide]	0.705	< 4.52	< 4.52	< 4.52	17.4% and 13.2%	10.7	19.8	12	17.9%	21	< 4.52	401	4	544	16	140	5	1330	pIC50 [1]: 5.71; pEC50 ([5]; Severe acute respiratory syndrome coronavirus 2, Vero C1008, 48 h, read-out: EC50 (cytopathic effect)): 4.47; inhibition at 8.33 µM ([5]; Severe acute respiratory syndrome coronavirus 2, Vero C1008, read-out: cytopathic effect, % cell viability, [inhibitor] 8.33 uM, duplicate wells): 26.9%; pIC50 ([9]; USP4 10 nM, Ub-rhodamine110, read-out: IC50): < 4.52; pIC50 ([10]; USP15 1 nM, Ub-rhodamine110, read-out: IC50): < 4.52
